Test results as given in patent US10117430B2, “Malononitrile compounds for controlling animal pests” (BASF SE, priority 2012, dated 2018).

Legend:
Type in all cases: in vivo
[1] = tested on: Cowpea Aphid (Aphis craccivora); assay: B.1 Cowpea aphid spray test on potted cowpea plants; conditions: in comparison with untreated controls, population reduction assessed after 24, 72 and 120 hours
Experimental: B.1 Cowpea Aphid (Aphis craccivora)
The active compounds were formulated in 50:50 (v/v) acetone:water. The test solution was prepared at the day of use. Potted cowpea plants colonized with approximately 100-150 aphids of various stages were sprayed after the pest population has been recorded. Population reduction was assessed after 24, 72, and 120 hours.

[2] = tested on: Mediterranean Fruitfly (Ceratitis capitata); assay: B.2 Mediterranean fruitfly microtiter diet test, egg and larval mortality; conditions: 120 h, in comparison with untreated controls, egg and larval mortality after 5 days
Experimental: B.2 Mediterranean Fruitfly (Ceratitis capitata)
(§1) For evaluating control of Mediterranean fruitfly (Ceratitis capitata) the test unit consisted of microtiter plates containing an insect diet and 50-80 C. capitata eggs. The compounds were formulated using a solution containing 75% v/v water and 25% v/v DMSO. Different concentrations of formulated compounds were sprayed onto the insect diet at 5 μl, using a custom built micro atomizer, at two replications. After application, microtiter plates were incubated at about 28±1° C. and about 80±5% relative humidity for 5 days. Egg and larval mortality was then visually assessed.

[3] = tested on: Green Peach Aphid (Myzus persicae); assay: B.3 Green peach aphid systemic test, artificial diet under membrane; conditions: 72 h, concentration of the test solution 2500 mg/L, 3 days
Excerpt: B.3 Green Peach Aphid (Myzus persicae)
For evaluating control of green peach aphid (Myzus persicae) through systemic means the test unit consisted of 96-well-microtiter plates containing liquid artificial diet under an artificial membrane. The compounds were formulated using a solution containing 75% v/v water and 25% v/v DMSO. Different concentrations of formulated compounds were pipetted into the aphid diet, using a custom built pipetter, at two replications. After application, 5-8 adult aphids were placed on the artificial membrane inside the microtiter plate wells. The aphids were then allowed to suck on the treated aphid diet and incubated at about 23±1° C. and about 50±5% relative humidity for 3 days. Aphid mortality and fecundity was then visually assessed.

[4] = tested on: Orchid Thrips (Dichromothrips corbetti); assay: B.4 Orchid thrips floral-immersion test; conditions: 96 h, in comparison with untreated controls, after 4 days
Experimental: B.4 Orchid Thrips (Dichromothrips Corbetti)
Dichromothrips corbetti adults used for bioassay are obtained from a colony maintained continuously under laboratory conditions. For testing purposes, the test compound is diluted to a concentration of 300 ppm (wt compound: vol diluent) in a 1:1 mixture of acetone:water (vol:vol), plus 0.01% vol/vol Kinetic® surfactant. Thrips potency of each compound is evaluated by using a floral-immersion technique. Plastic petri dishes are used as test arenas. All petals of individual, intact orchid flowers are dipped into treatment solution and allowed to dry. Treated flowers are placed into individual petri dishes along with 10-15 adult thrips. The petri dishes are then covered with lids. All test arenas are held under continuous light and a temperature of about 28° C. for duration of the assay. After 4 days, the numbers of live thrips are counted on each flower, and along inner walls of each petri dish. The level of thrips mortality is extrapolated from pre-treatment thrips numbers.

[5] = tested on: Vetch Aphid (Megoura viciae); assay: B.7 Vetch aphid test on broad bean leaf disks; conditions: foliar, 120 h, in comparison with untreated controls, 5 days
Experimental: B.7 Vetch Aphid (Megoura viciae)
For evaluating control of vetch aphid (Megoura viciae) through contact or systemic means the test unit consisted of 24-well-microtiter plates containing broad bean leaf disks. The compounds were formulated using a solution containing 75% v/v water and 25% v/v DMSO. Different concentrations of formulated compounds were sprayed onto the leaf disks at 2.5 μl, using a custom built micro atomizer, at two replications. After application, the leaf disks were air-dried and 5-8 adult aphids placed on the leaf disks inside the microtiter plate wells. The aphids were then allowed to suck on the treated leaf disks and incubated at about 23±1° C. and about 50±5% relative humidity for 5 days. Aphid mortality and fecundity was then visually assessed.

[6] = tested on: Boll Weevil (Anthonomus grandis); assay: B.9 Boll weevil microtiter diet test, egg and larval mortality; conditions: 120 h, in comparison with untreated controls, egg and larval mortality after 5 days
Experimental: B.9 Boll Weevil (Anthonomus grandis)
as §1, with “of boll weevil (Anthonomus grandis)” for “of Mediterranean fruitfly (Ceratitis capitata)”, “of 24-well-microtiter” for “of microtiter”, “and 20-30 A. grandis” for “and 50-80 C. capitata”, “at 20” for “at 5”, “about 23±1°” for “about 28±1°”, “about 50±5%” for “about 80±5%”

[7] = tested on: Red Spider Mite (Tetranychus kanzawai); assay: B.10 Red spider mite test on sprayed cowpea beans; conditions: in comparison with untreated controls, 72 hours after treatment
Experimental: B.10 Red Spider Mite (Tetranychus kanzawai)
The active compound is dissolved at the desired concentration in a mixture of 1:1 (vol:vol) distilled water:acetone. Add surfactant (Alkamuls® EL 620) at the rate of 0.1% (vol/vol). The test solution is prepared at the day of use. Potted cowpea beans of 7-10 days of age were cleaned with tap water and sprayed with 5 ml of the test solution using air driven hand atomizer. The treated plants were allowed to air dry and afterwards inculated with 20 or more mites by clipping a cassava leaf section with known mite population. Treated plants were placed inside a holding room at about 25-27° C. and about 50-60% relative humidity. Percent mortality was assessed 72 hours after treatment.

[8] = tested on: Rice brown plant hopper (Nilaparvata lugens); assay: B.11 Rice brown plant hopper test on sprayed rice seedlings; conditions: in comparison with untreated controls, after 72 hours
Experimental: B.11 Rice brown plant hopper (Nilaparvata lugens)
Rice seedlings were cleaned and washed 24 hours before spraying. The active compounds were formulated in 50:50 acetone:water (vol:vol) and 0.1% vol/vol surfactant (EL 620) was added. Potted rice seedlings were sprayed with 5 ml test solution, air dried, placed in cages and inoculated with 10 adults. Treated rice plants were kept at about 28-29° C. and relative humidity of about 50-60%. Percent mortality was recorded after 72 hours.

[9] = tested on: Yellow Fever Mosquito (Aedes aegypti); assay: whole plant or invertebrate; conditions: 48 h, in comparison with untreated controls, larval mortality after 2 days
Experimental: B.12 Yellow Fever Mosquito (Aedes aegypti)
For evaluating control of yellow fever mosquito (Aedes aegypti) the test unit consisted of 96-well-microtiter plates containing 200 μl of tap water per well and 5-15 freshly hatched A. aegypti larvae. The compounds or mixtures were formulated using a solution containing 75% water and 25% DMSO. Different concentrations of formulated compounds or mixtures were sprayed onto the insect diet at 2.5 μl, using a custom built micro atomizer, at two replications. After application, microtiter plates were incubated at 28±1° C., 80±5% relative humidity for 2 days. Larval mortality was then visually assessed.

[10] = tested on: Silverleaf Whitefly (Bemisia argentifolii); assay: B.5 Silverleaf whitefly test on sprayed cotton plants; conditions: 72 h, in comparison with untreated controls, 3 days after treatment
Experimental: B.5 Silverleaf Whitefly (Bemisia argentifolii)
The active compounds were formulated in cyclohexanone as a 10,000 ppm solution supplied in 1.3 ml ABgene® tubes. These tubes were inserted into an automated electrostatic sprayer equipped with an atomizing nozzle and they served as stock solutions for which lower dilutions were made in 50% acetone:50% water (v/v). A nonionic surfactant (Kinetic®) was included in the solution at a volume of 0.01% (v/v). Cotton plants at the cotyledon stage (one plant per pot) were sprayed by an automated electrostatic plant sprayer equipped with an atomizing spray nozzle. The plants were dried in the sprayer fume hood and then removed from the sprayer. Each pot was placed into a plastic cup and 10 to 12 whitefly adults (approximately 3-5 days old) were introduced. The insects were collected using an aspirator and 0.6 cm, nontoxic Tygon® tubing (R-3603) connected to a barrier pipette tip. The tip, containing the collected insects, was then gently inserted into the soil containing the treated plant, allowing insects to crawl out of the tip to reach the foliage for feeding. Cups were covered with a reusable screened lid (150-micron mesh polyester screen PeCap from Tetko, Inc.). Test plants were maintained in a growth room at 25° C. and 20-40% relative humidity for 3 days, avoiding direct exposure to fluorescent light (24 hour photoperiod) to prevent trapping of heat inside the cup. Mortality was assessed 3 days after treatment, compared to untreated control plants.

[11] = tested on: Southern Armyworm (Spodoptera eridania); assay: B.6 Southern armyworm test on sprayed lima bean plants; conditions: 96 h, in comparison with untreated controls, 4 days after treatment
Experimental: B.6 Southern Armyworm (Spodoptera eridania)
The active compounds were formulated in cyclohexanone as a 10,000 ppm solution supplied in 1.3 ml ABgene® tubes. These tubes were inserted into an automated electrostatic sprayer equipped with an atomizing nozzle and they served as stock solutions for which lower dilutions were made in 50% acetone:50% water (v/v). A nonionic surfactant (Kinetic®) was included in the solution at a volume of 0.01% (v/v). Lima bean plants (variety Sieva) were grown 2 plants to a pot and selected for treatment at the 1st true leaf stage. Test solutions were sprayed onto the foliage by an automated electrostatic plant sprayer equipped with an atomizing spray nozzle. The plants were dried in the sprayer fume hood and then removed from the sprayer. Each pot was placed into perforated plastic bags with a zip closure. Ten to 11 armyworm larvae were placed into the bag and the bags zipped closed. Test plants were maintained in a growth room at 25° C. and 20-40% relative humidity for 4 days, avoiding direct exposure to fluorescent light (24 hour photoperiod) to prevent trapping of heat inside the bags. Mortality and reduced feeding were assessed 4 days after treatment, compared to untreated control plants.

[12] = tested on: Green Soldier Stink Bug (Nezara viridula); assay: B.15 Green soldier stink bug test on sprayed soybean pods; conditions: 120 h, in comparison with untreated controls, after 5 days
Experimental: B.15 Green Soldier Stink Bug (Nezara viridula)
The active compound is dissolved at the desired concentration in a mixture of 1:1 (vol:vol) distilled water:aceteone. Surfactant (Kinetic HV) is added at a rate of 0.01% (vol/vol). The test solution is prepared at the day of use. Soybean pods were placed in microwavable plastic cups lined with moist filter paper and inoculated with ten 3rd instar N. viridula. Using a hand atomizer, an approximately 2 ml solution is sprayed into each cup. Treated cups were kept at about 28-29° C. and relative humidity of about 50-60%. Percent mortality was recorded after 5 days.

N#CC(C#N)(Cc1ccc(C(F)(F)F)nc1)c1cc(F)c(F)c(F)c1 [II-43]
≥ 75%: mortality at 500 ppm [1] | mortality at 2500 ppm [2] | mortality at 2500 µg/mL [3] | mortality at 500 ppm [4] | mortality at 2500 ppm [5] | mortality at 2500 ppm [6] | mortality at 500 ppm [7] | mortality at 300 ppm [8] | mortality at 2500 ppm [9]

N#CC(C#N)(Cc1cnc(C(F)(F)F)cn1)c1cccc(F)c1 [II-28]
≥ 75%: mortality at 500 ppm [1] | mortality at 500 ppm [4] | mortality at 500 ppm [10] | mortality at 2500 ppm [5] | mortality at 2500 ppm [6] | mortality at 500 ppm [7] | mortality at 2500 ppm [9]

N#CC(C#N)(Cc1ccc(C(F)(F)F)nn1)c1ccc(F)cc1 [II-14]
≥ 75%: mortality at 500 ppm [1] | mortality at 2500 µg/mL [3] | mortality at 500 ppm [11] | mortality at 2500 ppm [6]

CC(c1ccc(F)cn1)C(C#N)(C#N)c1ccc(F)cc1 (stereo not drawn) [II-9]
≥ 75%: mortality at 2500 µg/mL [3] | mortality at 500 ppm [10] | mortality at 2500 ppm [6] | mortality at 500 ppm [7] | mortality at 300 ppm [8] | mortality at 2500 ppm [9]

N#CC(C#N)(Cc1ccc(C(F)(F)F)nc1)c1cccc(F)c1 [II-19]
≥ 75%: mortality at 500 ppm [1] | mortality at 2500 ppm [2] | mortality at 500 ppm [4] | mortality at 500 ppm [10] | mortality at 300 ppm [11] | mortality at 2500 ppm [5] | mortality at 2500 ppm [6] | mortality at 2500 ppm [9] | mortality at 500 ppm [12]

C#Cc1ccc(C(C#N)(C#N)Cc2ccc(C(F)(F)F)cn2)cc1 [II-33]
≥ 75%: mortality at 500 ppm [4] | mortality at 500 ppm [7]

N#CC(C#N)(Cc1cnc(C(F)(F)F)nc1)c1ccccc1 [II-20]
≥ 75%: mortality at 500 ppm [1] | mortality at 2500 ppm [2] | mortality at 2500 µg/mL [3] | mortality at 500 ppm [4] | mortality at 500 ppm [10] | mortality at 2500 ppm [5] | mortality at 2500 ppm [6] | mortality at 500 ppm [7] | mortality at 300 ppm [8] | mortality at 2500 ppm [9] | mortality at 500 ppm [12]

N#CC(C#N)(Cc1ccc(C(F)(F)F)cn1)c1cc(F)cc(F)c1 [II-38]
≥ 75%: mortality at 500 ppm [1] | mortality at 2500 µg/mL [3] | mortality at 500 ppm [4] | mortality at 500 ppm [10] | mortality at 300 ppm [11] | mortality at 2500 ppm [5] | mortality at 2500 ppm [6] | mortality at 300 ppm [8] | mortality at 2500 ppm [9]

N#CC(C#N)(Cc1ncc(C(F)(F)F)cn1)c1ccc(F)cc1 [II-17]
≥ 75%: mortality at 500 ppm [1] | mortality at 500 ppm [4] | mortality at 500 ppm [10] | mortality at 500 ppm [11] | mortality at 2500 ppm [5] | mortality at 2500 ppm [6] | mortality at 2500 ppm [9]

N#CC(C#N)(Cc1ccc(F)nc1F)c1ccc(F)cc1 [II-51]
≥ 75%: mortality at 500 ppm [4] | mortality at 500 ppm [7] | mortality at 2500 ppm [9]

N#CC(C#N)(Cc1ccc(C(F)(F)F)cn1)c1cc(F)c(F)c(F)c1 [II-48]
≥ 75%: mortality at 2500 ppm [2] | mortality at 2500 µg/mL [3] | mortality at 500 ppm [4] | mortality at 2500 ppm [5] | mortality at 2500 ppm [6] | mortality at 300 ppm [8] | mortality at 2500 ppm [9] | mortality at 500 ppm [12]

CC(c1ccc(C(F)(F)F)cn1)C(C#N)(C#N)c1cc(F)c(F)c(F)c1 (stereo not drawn) [II-61]
≥ 75%: mortality at 500 ppm [1] | mortality at 2500 ppm [2] | mortality at 2500 µg/mL [3] | mortality at 500 ppm [4] | mortality at 2500 ppm [5] | mortality at 2500 ppm [6] | mortality at 300 ppm [8] | mortality at 2500 ppm [9] | mortality at 500 ppm [12]
